Experimental data reported in PubChem BioAssay (NCI).
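Tested at 5 concentrations; 48 h exposure; 96-well plates; endpoints linearly interpolated, else capped at highest concentration. TGI marks complete inhibition of growth.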

Legend:
Test in all cases: NCI tumour cell line growth inhibition, 48 h
SF-268 CNS = test system: SF-268 CNS
HCT-15 colon = test system: HCT-15 colon
TK-10 renal = test system: TK-10 renal
NCI-H226 lung = test system: NCI-H226 lung
NCI-H460 lung = test system: NCI-H460 lung
K-562 leukemia = test system: K-562 leukemia
MDA-MB-231 breast = test system: MDA-MB-231 breast
SK-OV-3 ovarian = test system: SK-OV-3 ovarian
MDA-N = test system: MDA-N
T-47D breast = test system: T-47D breast
IGROV1 ovarian = test system: IGROV1 ovarian
HCT-116 colon = test system: HCT-116 colon
NCI-H23 lung = test system: NCI-H23 lung
LOX IMVI melanoma = test system: LOX IMVI melanoma
SNB-19 CNS = test system: SNB-19 CNS
PC-3 prostate = test system: PC-3 prostate
A498 renal = test system: A498 renal
SN12C renal = test system: SN12C renal
UACC-62 melanoma = test system: UACC-62 melanoma
BT-549 breast = test system: BT-549 breast
HS 578T breast = test system: HS 578T breast
DU-145 prostate = test system: DU-145 prostate
HOP-92 NSCLC = test system: HOP-92 NSCLC
MCF7 breast = test system: MCF7 breast
SK-MEL-5 melanoma = test system: SK-MEL-5 melanoma
MOLT-4 leukemia = test system: MOLT-4 leukemia
KM12 colon = test system: KM12 colon
786-0 renal = test system: 786-0 renal
HOP-62 NSCLC = test system: HOP-62 NSCLC
COLO 205 colon = test system: COLO 205 colon
UACC-257 melanoma = test system: UACC-257 melanoma
U251 CNS = test system: U251 CNS
HT29 colon = test system: HT29 colon
OVCAR-5 ovarian = test system: OVCAR-5 ovarian
CCRF-CEM leukemia = test system: CCRF-CEM leukemia
HL-60(TB) leukemia = test system: HL-60(TB) leukemia
OVCAR-8 ovarian = test system: OVCAR-8 ovarian
SK-MEL-28 melanoma = test system: SK-MEL-28 melanoma
SW-620 colon = test system: SW-620 colon
ACHN renal = test system: ACHN renal
CAKI-1 renal = test system: CAKI-1 renal
A549 NSCLC = test system: A549 NSCLC
RXF 393 renal = test system: RXF 393 renal
EKVX NSCLC = test system: EKVX NSCLC
SK-MEL-2 melanoma = test system: SK-MEL-2 melanoma
MALME-3M melanoma = test system: MALME-3M melanoma
NCI-H522 lung = test system: NCI-H522 lung
OVCAR-4 ovarian = test system: OVCAR-4 ovarian
UO-31 renal = test system: UO-31 renal
SF-295 CNS = test system: SF-295 CNS
MDA-MB-435 = test system: MDA-MB-435
M14 melanoma = test system: M14 melanoma
OVCAR-3 ovarian = test system: OVCAR-3 ovarian
NCI/ADR-RES ovarian = test system: NCI/ADR-RES ovarian

SMILES: C#C[C@]1(O)CC[C@H]2[C@@H]3CCC4=CC(=NCCOC(=O)c5cccc6cc7ccccc7nc56)CC[C@@H]4[C@H]3CC[C@@]21C
- TGI (SF-268 CNS): 72.3 µM
- TGI (HCT-15 colon): 43.1 µM
- TGI (TK-10 renal): > 100 µM
- TGI (NCI-H226 lung): > 100 µM
- TGI (NCI-H460 lung): 35.8 µM
- TGI (K-562 leukemia): > 100 µM
- TGI (MDA-MB-231 breast): 44.8 µM
- TGI (SK-OV-3 ovarian): > 100 µM
- TGI (MDA-N): > 100 µM
- TGI (T-47D breast): 75.9 µM
- TGI (IGROV1 ovarian): 30.8 µM
- TGI (HCT-116 colon): > 100 µM
- TGI (NCI-H23 lung): 62.5 µM
- TGI (LOX IMVI melanoma): 24.8 µM
- TGI (SNB-19 CNS): > 100 µM
- TGI (PC-3 prostate): 34.9 µM
- TGI (A498 renal): > 100 µM
- TGI (SN12C renal): > 100 µM
- TGI (UACC-62 melanoma): 96.1 µM
- TGI (BT-549 breast): 74.2 µM
- TGI (HS 578T breast): 63.8 µM
- TGI (DU-145 prostate): > 100 µM
- TGI (HOP-92 NSCLC): 48.6 µM
- TGI (MCF7 breast): 69.4 µM
- TGI (SK-MEL-5 melanoma): > 100 µM
- TGI (MOLT-4 leukemia): > 100 µM
- TGI (KM12 colon): 97.2 µM
- TGI (786-0 renal): > 100 µM
- TGI (HOP-62 NSCLC): > 100 µM
- TGI (COLO 205 colon): > 100 µM
- TGI (UACC-257 melanoma): > 100 µM
- TGI (U251 CNS): 25.2 µM
- TGI (HT29 colon): > 100 µM
- TGI (OVCAR-5 ovarian): > 100 µM
- TGI (CCRF-CEM leukemia): > 100 µM
- TGI (HL-60(TB) leukemia): > 100 µM
- TGI (OVCAR-8 ovarian): 21.9 µM
- TGI (SK-MEL-28 melanoma): > 100 µM
- TGI (SW-620 colon): > 100 µM
- TGI (ACHN renal): > 100 µM
- TGI (CAKI-1 renal): > 100 µM
- TGI (A549 NSCLC): > 100 µM
- TGI (RXF 393 renal): 28.3 µM
- TGI (EKVX NSCLC): > 100 µM
- TGI (SK-MEL-2 melanoma): 53.9 µM
- TGI (MALME-3M melanoma): 74.4 µM
- TGI (NCI-H522 lung): 45.6 µM
- TGI (OVCAR-4 ovarian): > 100 µM
- TGI (UO-31 renal): > 100 µM
- TGI (SF-295 CNS): 67.6 µM
- TGI (MDA-MB-435): > 100 µM
- TGI (M14 melanoma): 61.3 µM
- TGI (OVCAR-3 ovarian): > 100 µM
- TGI (NCI/ADR-RES ovarian): 81.3 µM
